Assays:
Assay in all cases: combination Emax (second highest fraction inhibited in the dose matrix, 72 h); higher = more inhibition; extreme values may be limits of the assay
[1] = tested on: MOLT-4 (T-Lymphoblastic Leukemia)
Summary of the method: (§1)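 Cell lines grown in DMEM/F12 or RPMI with 10% FBS were plated in 1536-well plates and held 24 hours at 37°C, 5% CO2 before 72 hours of exposure to two-drug dose matrices, with DMSO typically at 0.2%. CellTiter-Glo 2.0 luminescence gave viability, which was converted to inhibition. Vehicle wells were set to 0 and blank wells to 1. Combination Emax is the second-highest inhibition in the matrix, and Bliss excess is the observed combination effect minus the expected EA + EB − EA·EB, where EA and EB are the single-agent effects.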

[2] = tested on: HCC1500 (Breast Carcinoma)
Summary of the method: as §1

[3] = tested on: KGN (Other Solid Carcinomas)
Summary of the method: as §1

[4] = tested on: KMRC-1 (Kidney Carcinoma)
Summary of the method: as §1

[5] = tested on: NCI-H1838 (Lung Adenocarcinoma)
Summary of the method: as §1

[6] = tested on: EJM (Plasma Cell Myeloma)
Summary of the method: as §1

[7] = tested on: SW982 (Other Solid Carcinomas)
Summary of the method: as §1

[8] = tested on: MV-4-11 (Acute Myeloid Leukemia)
Summary of the method: as §1

[9] = tested on: SNU-387 (Hepatocellular Carcinoma)
Summary of the method: as §1

[10] = tested on: Ca-Ski (Cervical Carcinoma)
Summary of the method: as §1

COLO-679 (Melanoma) = tested on: COLO-679 (Melanoma)
Summary of the method: as §1

[11] = tested on: Mo-T (Other Blood Carcinomas)
Summary of the method: as §1

[12] = tested on: HAL-01 (B-Lymphoblastic Leukemia)
Summary of the method: as §1

[13] = tested on: G-401 (Other Solid Carcinomas)
Summary of the method: as §1

[14] = tested on: ME-180 (Cervical Carcinoma)
Summary of the method: as §1

[15] = tested on: EFO-21 (Ovarian Carcinoma)
Summary of the method: as §1

[16] = tested on: KOPN-8 (B-Lymphoblastic Leukemia)
Summary of the method: as §1

[17] = tested on: ML-2 (Acute Myeloid Leukemia)
Summary of the method: as §1

EW-1 (Ewing's Sarcoma) = tested on: EW-1 (Ewing's Sarcoma)
Summary of the method: as §1

[18] = tested on: NCI-H650 (Lung Adenocarcinoma)
Summary of the method: as §1

Structure (SMILES)	combination Emax [1]	combination Emax [2]	combination Emax [3]	combination Emax [4]	combination Emax [5]	combination Emax [6]	combination Emax [7]	combination Emax [8]	combination Emax [9]	combination Emax [10]	combination Emax (COLO-679 (Melanoma))	combination Emax [11]	combination Emax [12]	combination Emax [13]	combination Emax [14]	combination Emax [15]	combination Emax [16]	combination Emax [17]	combination Emax (EW-1 (Ewing's Sarcoma))	combination Emax [18]
CC1(C)CCC(CN2CCN(c3ccc(C(=O)NS(=O)(=O)c4ccc(NCC5CCOCC5)c([N+](=O)[O-])c4)c(Oc4cnc5[nH]ccc5c4)c3)CC2)=C(c2ccc(Cl)cc2)C1 [Venetoclax] + Cc1cc2ncnn2cc1Nc1ncc2c(n1)n(C1CCOCC1)c(=O)n2C [AZD7648] (first compound max 1 µM, 7x7, partner max 10 µM)	0.445	0.823	0.471	0.181	0.344	0.238	0.27	1	0.167	0.209	0.133	0.616	0.881	0.424	0.268	0.28	0.739	0.823	0.418	0.197
CC1(C)CCC(CN2CCN(c3ccc(C(=O)NS(=O)(=O)c4ccc(NCC5CCOCC5)c([N+](=O)[O-])c4)c(Oc4cnc5[nH]ccc5c4)c3)CC2)=C(c2ccc(Cl)cc2)C1 [Venetoclax] + CN(C)CCCOc1ccc(-c2ccc3ncc4c(c3c2)n(C2CCOCC2)c(=O)n4C)cn1 [AZD0156] (first compound max 1 µM, 7x7, partner max 1 µM)	0.741	0.864	0.488	0.0988	0.303	0.159	0.2	1	0.201	0.369	0.107	0.558	0.936	0.35	0.211	0.29	0.813	0.822	0.179	0.0987
NC1(C(=O)N[C@@H](CCO)c2ccc(Cl)cc2)CCN(c2ncnc3[nH]ccc23)CC1 [Capivasertib] + CC(=O)c1c(C)c2cnc(Nc3ccc(N4CCNCC4)cn3)nc2n(C2CCCC2)c1=O [Palbociclib] (first compound max 10 µM, 7x7, partner max 10 µM)	0.736	0.239	0.724	0.457	0.432	0.391	0.607	0.861	0.312	0.462	0.324	0.4	0.69	0.898	0.629	0.101	0.809	0.593	0.608	0.262
CC(=O)c1c(C)c2cnc(Nc3ccc(N4CCNCC4)cn3)nc2n(C2CCCC2)c1=O [Palbociclib] + Cc1c2c(nn1C)CSCc1cc(n(C)n1)CSc1cc(c3ccccc3c1)OCCCc1c(C(=O)O)n(C)c3c-2c(Cl)ccc13 [AZD5991] (first compound max 10 µM, 7x7, partner max 1 µM)	0.9	0.434	0.644	0.322	0.363	0.443	0.528	1	0.429	0.342	0.335	0.344	0.935	0.854	0.151	0.256	0.917	1	0.491	0.244
COc1nnc2ccc(N3CCC(c4ccc(OCCN5CCN(C)C(=O)[C@H]5C)cc4)CC3)nn12 [AZD5153] + Cc1c2c(nn1C)CSCc1cc(n(C)n1)CSc1cc(c3ccccc3c1)OCCCc1c(C(=O)O)n(C)c3c-2c(Cl)ccc13 [AZD5991] (first compound max 1 µM, 7x7, partner max 1 µM)	0.95	0.696	0.742	0.322	0.731	0.89	0.771	1	0.614	0.835	0.874	0.616	0.873	0.956	0.438	0.414	1	1	0.751	0.768
CC(=O)c1c(C)c2cnc(Nc3ccc(N4CCNCC4)cn3)nc2n(C2CCCC2)c1=O [Palbociclib] + CC1(C)CCC(CN2CCN(c3ccc(C(=O)NS(=O)(=O)c4ccc(NCC5CCOCC5)c([N+](=O)[O-])c4)c(Oc4cnc5[nH]ccc5c4)c3)CC2)=C(c2ccc(Cl)cc2)C1 [Venetoclax] (first compound max 10 µM, 7x7, partner max 1 µM)	0.629	0.545	0.507	0.162	0.279	0.159	0.57	1	0.129	0.131	0.0736	0.297	0.99	0.849	0.0846	0.105	0.958	0.949	0.528	0.172
CCc1c2c(nc3ccc(O)cc13)-c1cc3c(c(=O)n1C2)COC(=O)[C@]3(O)CC [SN-38] + O=C(c1cc(Cc2n[nH]c(=O)c3ccccc23)ccc1F)N1CCN(C(=O)C2CC2)CC1 [Olaparib] (first compound max 0.3 µM, 7x7, partner max 10 µM)	1	0.873	0.918	0.318	–	0.944	0.789	1	0.146	0.997	0.743	0.724	1	–	0.914	0.586	0.965	1	0.99	–
C=CCn1c(=O)c2cnc(Nc3ccc(N4CCN(C)CC4)cc3)nc2n1-c1cccc(C(C)(C)O)n1 [AZD1775] + C1CN(CCC1(C(=O)N[C@@H](CCO)C2=CC=C(C=C2)Cl)N)C3=NC=NC4=C3C=CN4 [Capivasertib] (first compound max 3 µM, partner max 3 µM)	0.989	0.413	0.734	0.593	0.501	0.923	0.674	–	0.687	0.825	0.412	0.894	0.977	0.646	0.898	0.515	0.968	0.994	0.963	0.786
CN(C)CCCOc1ccc(-c2ccc3ncc4c(c3c2)n(C2CCOCC2)c(=O)n4C)cn1 [AZD0156] + O=C(c1cc(Cc2n[nH]c(=O)c3ccccc23)ccc1F)N1CCN(C(=O)C2CC2)CC1 [Olaparib] (first compound max 3 µM, partner max 3 µM)	0.636	0.403	0.62	0.151	0.21	0.341	0.4	–	0.405	0.304	0.225	0.402	0.563	0.3	0.348	0.252	0.78	0.478	0.684	0.149
CS(=O)(=O)CCNCc1ccc(-c2ccc3ncnc(Nc4ccc(OCc5cccc(F)c5)c(Cl)c4)c3c2)o1 [Lapatinib] + NC1(c2ccc(-c3nc4ccn5c(=O)[nH]nc5c4cc3-c3ccccc3)cc2)CCC1 [MK-2206] (first compound max 10 µM, 7x7, partner max 10 µM)	0.938	0.901	0.85	0.792	0.348	–	0.894	0.961	0.873	0.758	0.618	0.948	0.951	–	0.758	0.321	0.936	0.785	–	0.31
Cc1c2c(nn1C)CSCc1cc(n(C)n1)CSc1cc(c3ccccc3c1)OCCCc1c(C(=O)O)n(C)c3c-2c(Cl)ccc13 [AZD5991] + CC(=O)O[C@H]1C(=O)[C@@]2(C)[C@H]([C@H](OC(=O)c3ccccc3)[C@]3(O)C[C@H](OC(=O)[C@H](O)[C@@H](NC(=O)c4ccccc4)c4ccccc4)C(C)=C1C3(C)C)[C@]1(OC(C)=O)CO[C@@H]1C[C@@H]2O [Paclitaxel] (first compound max 1 µM, 7x7, partner max 3 µM)	0.991	–	0.916	0.508	–	–	0.953	1	0.913	0.919	0.565	0.658	0.99	–	0.7	0.368	–	1	–	–
C=CCn1c(=O)c2cnc(Nc3ccc(N4CCN(C)CC4)cc3)nc2n1-c1cccc(C(C)(C)O)n1 [AZD1775] + CCc1c2c(nc3ccc(O)cc13)-c1cc3c(c(=O)n1C2)COC(=O)[C@]3(O)CC [SN-38] (first compound max 1 µM, partner max 0.3 µM)	1	–	0.833	0.534	–	–	0.866	0.999	0.497	1	0.632	0.817	1	–	0.973	0.466	–	1	–	–
C[C@@H](Oc1cc(-c2cnn(C3CCNCC3)c2)cnc1N)c1c(Cl)ccc(F)c1Cl [Crizotinib] + Cn1cnc2c(F)c(Nc3ccc(Br)cc3Cl)c(C(=O)NOCCO)cc21 [Selumetinib] (first compound max 10 µM, 7x7, partner max 10 µM)	0.815	–	0.816	0.323	–	–	0.973	1	0.89	0.551	0.798	0.466	0.991	–	0.269	0.224	–	1	–	–

Reference: the supplement of paper PMC11061612
